Laboratory results: PubChem BioAssay (NCI)
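Assay format: 96-well plates, 48-hour exposure. Here, GI50 denotes the concentration required for 50% inhibition of growth. Definition used: TGI = concentration required for complete inhibition of growth.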

Key:
Test in all cases: growth of human tumour cells (NCI), 48 h
TK-10 renal = tested on: TK-10 renal
SF-268 CNS = tested on: SF-268 CNS
MALME-3M melanoma = tested on: MALME-3M melanoma
EKVX NSCLC = tested on: EKVX NSCLC
RXF 393 renal = tested on: RXF 393 renal
SK-OV-3 ovarian = tested on: SK-OV-3 ovarian
OVCAR-5 ovarian = tested on: OVCAR-5 ovarian
OVCAR-4 ovarian = tested on: OVCAR-4 ovarian
NCI-H226 lung = tested on: NCI-H226 lung
DMS 273 small cell lung = tested on: DMS 273 small cell lung
RPMI-8226 leukemia = tested on: RPMI-8226 leukemia
A549 NSCLC = tested on: A549 NSCLC
UO-31 renal = tested on: UO-31 renal
M19-MEL melanoma = tested on: M19-MEL melanoma
LXFL 529 NSCLC = tested on: LXFL 529 NSCLC
HOP-18 NSCLC = tested on: HOP-18 NSCLC
KM20L2 colon = tested on: KM20L2 colon
DMS 114 small cell lung = tested on: DMS 114 small cell lung
SNB-75 CNS = tested on: SNB-75 CNS
HCC-2998 colon = tested on: HCC-2998 colon
SNB-78 CNS = tested on: SNB-78 CNS
SF-539 CNS = tested on: SF-539 CNS
SK-MEL-5 melanoma = tested on: SK-MEL-5 melanoma
HOP-62 NSCLC = tested on: HOP-62 NSCLC
CAKI-1 renal = tested on: CAKI-1 renal
DLD-1 colon = tested on: DLD-1 colon
HL-60(TB) leukemia = tested on: HL-60(TB) leukemia
ACHN renal = tested on: ACHN renal
SK-MEL-2 melanoma = tested on: SK-MEL-2 melanoma
A498 renal = tested on: A498 renal
SW-620 colon = tested on: SW-620 colon
COLO 205 colon = tested on: COLO 205 colon
SN12C renal = tested on: SN12C renal
HOP-92 NSCLC = tested on: HOP-92 NSCLC
NCI-H23 lung = tested on: NCI-H23 lung
NCI-H460 lung = tested on: NCI-H460 lung
IGROV1 ovarian = tested on: IGROV1 ovarian
KM12 colon = tested on: KM12 colon
RXF-631 renal = tested on: RXF-631 renal
SNB-19 CNS = tested on: SNB-19 CNS
HCT-116 colon = tested on: HCT-116 colon
UACC-257 melanoma = tested on: UACC-257 melanoma
HCT-15 colon = tested on: HCT-15 colon
M14 melanoma = tested on: M14 melanoma
786-0 renal = tested on: 786-0 renal
SF-295 CNS = tested on: SF-295 CNS
HT29 colon = tested on: HT29 colon
MOLT-4 leukemia = tested on: MOLT-4 leukemia
CCRF-CEM leukemia = tested on: CCRF-CEM leukemia
SK-MEL-28 melanoma = tested on: SK-MEL-28 melanoma
K-562 leukemia = tested on: K-562 leukemia
OVCAR-8 ovarian = tested on: OVCAR-8 ovarian
U251 CNS = tested on: U251 CNS
LOX IMVI melanoma = tested on: LOX IMVI melanoma
OVCAR-3 ovarian = tested on: OVCAR-3 ovarian
XF 498 CNS = tested on: XF 498 CNS
NCI-H522 lung = tested on: NCI-H522 lung
UACC-62 melanoma = tested on: UACC-62 melanoma
SR leukemia = tested on: SR leukemia

CC(C)N(C(C)C)[PH+]1O[PH+](N(C(C)C)C(C)C)O[PH+](N(C(C)C)C(C)C)O[PH+](N(C(C)C)C(C)C)O1.[C-]#[O+].[C-]#[O+].[C-]#[O+].[C-]#[O+].[C-]#[O+].[C-]#[O+].[C-]#[O+].[C-]#[O+].[Mo].[Mo] (centres undefined)
GI50 (TK-10 renal): > 100 µM
TGI (TK-10 renal): > 100 µM
GI50 (SF-268 CNS): > 100 µM
TGI (SF-268 CNS): > 100 µM
GI50 (MALME-3M melanoma): > 100 µM
TGI (MALME-3M melanoma): > 100 µM
GI50 (EKVX NSCLC): > 100 µM
TGI (EKVX NSCLC): > 100 µM
GI50 (RXF 393 renal): > 100 µM
TGI (RXF 393 renal): > 100 µM
GI50 (SK-OV-3 ovarian): > 100 µM
TGI (SK-OV-3 ovarian): > 100 µM
GI50 (OVCAR-5 ovarian): > 100 µM
TGI (OVCAR-5 ovarian): > 100 µM
GI50 (OVCAR-4 ovarian): > 100 µM
TGI (OVCAR-4 ovarian): > 100 µM
GI50 (NCI-H226 lung): > 100 µM
TGI (NCI-H226 lung): > 100 µM
GI50 (DMS 273 small cell lung): > 100 µM
TGI (DMS 273 small cell lung): > 100 µM
GI50 (RPMI-8226 leukemia): > 100 µM
TGI (RPMI-8226 leukemia): > 100 µM
GI50 (A549 NSCLC): > 100 µM
TGI (A549 NSCLC): > 100 µM
GI50 (UO-31 renal): > 100 µM
TGI (UO-31 renal): > 100 µM
GI50 (M19-MEL melanoma): > 100 µM
TGI (M19-MEL melanoma): > 100 µM
GI50 (LXFL 529 NSCLC): > 100 µM
TGI (LXFL 529 NSCLC): > 100 µM
GI50 (HOP-18 NSCLC): > 100 µM
TGI (HOP-18 NSCLC): > 100 µM
GI50 (KM20L2 colon): > 100 µM
TGI (KM20L2 colon): > 100 µM
GI50 (DMS 114 small cell lung): > 100 µM
TGI (DMS 114 small cell lung): > 100 µM
GI50 (SNB-75 CNS): > 100 µM
TGI (SNB-75 CNS): > 100 µM
GI50 (HCC-2998 colon): > 100 µM
TGI (HCC-2998 colon): > 100 µM
GI50 (SNB-78 CNS): > 100 µM
TGI (SNB-78 CNS): > 100 µM
GI50 (SF-539 CNS): > 100 µM
TGI (SF-539 CNS): > 100 µM
GI50 (SK-MEL-5 melanoma): > 100 µM
TGI (SK-MEL-5 melanoma): > 100 µM
GI50 (HOP-62 NSCLC): > 100 µM
TGI (HOP-62 NSCLC): > 100 µM
GI50 (CAKI-1 renal): > 100 µM
TGI (CAKI-1 renal): > 100 µM
GI50 (DLD-1 colon): > 100 µM
TGI (DLD-1 colon): > 100 µM
GI50 (HL-60(TB) leukemia): > 100 µM
TGI (HL-60(TB) leukemia): > 100 µM
GI50 (ACHN renal): > 100 µM
TGI (ACHN renal): > 100 µM
GI50 (SK-MEL-2 melanoma): > 100 µM
TGI (SK-MEL-2 melanoma): > 100 µM
GI50 (A498 renal): > 100 µM
TGI (A498 renal): > 100 µM
GI50 (SW-620 colon): > 100 µM
TGI (SW-620 colon): > 100 µM
GI50 (COLO 205 colon): > 100 µM
TGI (COLO 205 colon): > 100 µM
GI50 (SN12C renal): > 100 µM
TGI (SN12C renal): > 100 µM
GI50 (HOP-92 NSCLC): > 100 µM
TGI (HOP-92 NSCLC): > 100 µM
GI50 (NCI-H23 lung): > 100 µM
TGI (NCI-H23 lung): > 100 µM
GI50 (NCI-H460 lung): > 100 µM
TGI (NCI-H460 lung): > 100 µM
GI50 (IGROV1 ovarian): > 100 µM
TGI (IGROV1 ovarian): > 100 µM
GI50 (KM12 colon): > 100 µM
TGI (KM12 colon): > 100 µM
GI50 (RXF-631 renal): > 100 µM
TGI (RXF-631 renal): > 100 µM
GI50 (SNB-19 CNS): > 100 µM
TGI (SNB-19 CNS): > 100 µM
GI50 (HCT-116 colon): > 100 µM
TGI (HCT-116 colon): > 100 µM
GI50 (UACC-257 melanoma): > 100 µM
TGI (UACC-257 melanoma): > 100 µM
GI50 (HCT-15 colon): > 100 µM
TGI (HCT-15 colon): > 100 µM
GI50 (M14 melanoma): > 100 µM
TGI (M14 melanoma): > 100 µM
GI50 (786-0 renal): > 100 µM
TGI (786-0 renal): > 100 µM
GI50 (SF-295 CNS): > 100 µM
TGI (SF-295 CNS): > 100 µM
GI50 (HT29 colon): > 100 µM
TGI (HT29 colon): > 100 µM
GI50 (MOLT-4 leukemia): > 100 µM
TGI (MOLT-4 leukemia): > 100 µM
GI50 (CCRF-CEM leukemia): > 100 µM
TGI (CCRF-CEM leukemia): > 100 µM
GI50 (SK-MEL-28 melanoma): > 100 µM
TGI (SK-MEL-28 melanoma): > 100 µM
GI50 (K-562 leukemia): > 100 µM
TGI (K-562 leukemia): > 100 µM
GI50 (OVCAR-8 ovarian): > 100 µM
TGI (OVCAR-8 ovarian): > 100 µM
GI50 (U251 CNS): > 100 µM
TGI (U251 CNS): > 100 µM
GI50 (LOX IMVI melanoma): > 100 µM
TGI (LOX IMVI melanoma): > 100 µM
GI50 (OVCAR-3 ovarian): > 100 µM
TGI (OVCAR-3 ovarian): > 100 µM
GI50 (XF 498 CNS): > 100 µM
TGI (XF 498 CNS): > 100 µM
GI50 (NCI-H522 lung): > 100 µM
TGI (NCI-H522 lung): > 100 µM
GI50 (UACC-62 melanoma): > 100 µM
TGI (UACC-62 melanoma): > 100 µM

Cc1csc2nc(-c3ccncc3)cn12
TGI (TK-10 renal): > 100 µM
TGI (SF-268 CNS): > 100 µM
TGI (MALME-3M melanoma): > 100 µM
TGI (EKVX NSCLC): > 100 µM
TGI (SK-OV-3 ovarian): > 100 µM
TGI (OVCAR-5 ovarian): > 100 µM
TGI (OVCAR-4 ovarian): > 100 µM
TGI (NCI-H226 lung): > 100 µM
TGI (DMS 273 small cell lung): 41 µM
TGI (RPMI-8226 leukemia): > 64.1 µM
TGI (A549 NSCLC): > 100 µM
TGI (UO-31 renal): > 100 µM
TGI (M19-MEL melanoma): > 100 µM
TGI (LXFL 529 NSCLC): > 76.5 µM
TGI (HOP-18 NSCLC): > 100 µM
TGI (SR leukemia): 51 µM
TGI (KM20L2 colon): > 100 µM
TGI (DMS 114 small cell lung): > 60.9 µM
TGI (SNB-75 CNS): > 100 µM
TGI (HCC-2998 colon): > 100 µM
TGI (SNB-78 CNS): > 100 µM
TGI (SF-539 CNS): > 65.9 µM
TGI (SK-MEL-5 melanoma): > 100 µM
TGI (HOP-62 NSCLC): > 100 µM
TGI (CAKI-1 renal): > 100 µM
TGI (DLD-1 colon): > 100 µM
TGI (HL-60(TB) leukemia): > 52.4 µM
TGI (ACHN renal): > 100 µM
TGI (SK-MEL-2 melanoma): > 100 µM
TGI (A498 renal): > 100 µM
TGI (SW-620 colon): > 54.2 µM
TGI (COLO 205 colon): > 79.7 µM
TGI (SN12C renal): > 100 µM
TGI (HOP-92 NSCLC): > 100 µM
TGI (NCI-H23 lung): > 100 µM
TGI (NCI-H460 lung): > 61.4 µM
TGI (IGROV1 ovarian): > 100 µM
TGI (KM12 colon): > 100 µM
TGI (RXF-631 renal): > 100 µM
TGI (SNB-19 CNS): > 100 µM
TGI (HCT-116 colon): > 59.3 µM
TGI (UACC-257 melanoma): > 100 µM
TGI (HCT-15 colon): > 56.7 µM
TGI (M14 melanoma): > 100 µM
TGI (786-0 renal): 34.5 µM
TGI (SF-295 CNS): > 100 µM
TGI (HT29 colon): > 100 µM
TGI (MOLT-4 leukemia): > 100 µM
TGI (CCRF-CEM leukemia): > 61 µM
TGI (SK-MEL-28 melanoma): > 100 µM
TGI (K-562 leukemia): > 65.4 µM
TGI (OVCAR-8 ovarian): > 100 µM
TGI (U251 CNS): > 72.6 µM
TGI (LOX IMVI melanoma): > 61.5 µM
TGI (OVCAR-3 ovarian): > 100 µM
TGI (XF 498 CNS): > 100 µM
TGI (NCI-H522 lung): > 100 µM
TGI (UACC-62 melanoma): > 100 µM
